# Target: T1, ETA Receptor (Rattus norvegicus, UniProt P26684)
# T1 construct: endogenous in cells; host or cells: MMQ rat pituitary cells (membranes)
# T1 sequence (P26684 21-426): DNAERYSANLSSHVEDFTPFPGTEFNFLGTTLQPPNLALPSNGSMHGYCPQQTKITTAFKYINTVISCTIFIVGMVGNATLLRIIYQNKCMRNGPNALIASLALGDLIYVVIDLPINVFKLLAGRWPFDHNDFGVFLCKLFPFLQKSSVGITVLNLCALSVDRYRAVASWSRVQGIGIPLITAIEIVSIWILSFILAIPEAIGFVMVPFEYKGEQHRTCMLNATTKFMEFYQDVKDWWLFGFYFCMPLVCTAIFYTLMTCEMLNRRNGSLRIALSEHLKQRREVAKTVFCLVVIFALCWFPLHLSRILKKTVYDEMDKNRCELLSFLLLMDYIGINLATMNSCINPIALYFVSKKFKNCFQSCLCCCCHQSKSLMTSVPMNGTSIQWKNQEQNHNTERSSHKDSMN
# Assay: [125I]ET-1 binding to membranes from MMQ cells (ETA receptor binding assay, Table 4)
# Details: test compound at 1 μM; 0.1 nM [125I]ET-1, MMQ cell membranes, 4 hours at 25° C.
# Procedure: Preparation of Membranes from MMQ Cells:
# MMQ [MacLeod/MacQueen/Login cell line (prolactin secreting rat pituitary cells)] cells from 150 mL culture flasks were collected by centrifugation (1000×g for 10 min) and then homogenized in 25 mL of 10 mM Hepes (pH 7.4) containing 0.25 M sucrose and protease inhibitors [3 mM EDTA, 0.1 mM PMSF, and 5 μg/mL Pepstatin A] by a micro ultrasonic cell disrupter (Kontes). The mixture was centrifuged at 1000×g for 10 min. The supernatant was collected and centrifuged at 60,000×g for 60 min. The precipitate was resuspended in 20 mM Tris, pH 7.4 containing the above protease inhibitors and centrifuged again. The final pellet was resuspended in 20 mM Tris, pH 7.4 containing protease inhibitors and stored at −80° C. until used. Protein content was determined by the Bio-Rad dye-binding protein assay.
# Binding assays were performed in 96-well microtiter plates pretreated with 0.1% BSA. […] After incubation, unbound ligands were separated from bound ligands by a vacuum filtration method using glass-fiber filter strips in PHD cell harvesters (Cambridge Technology, Inc., MA), followed by washing the filter strips with saline (1 mL) for three times. Nonspecific binding was determined in the presence of 1 μM ET-1.
row,SMILES,% Inhibition of ETA at 1 μM [%]
1,"CCCCN(CCCC)C(=O)CN1CC(c2ccc3c(c2)CCO3)C(C(=O)O)C1c1ccc2c(c1)CCO2 (stereo not drawn) [Example 162B, trans,trans-1-(N,N-Di(n-butyl)aminocarbonylmethyl)-2,4-di(5-benzo-2,3-dihydrofuranyl)pyrrolidine-3-carboxylic acid]",91.5
2,"CCCN(C)C(=O)CN1CC(c2ccc3c(c2)OCCO3)C(C(=O)O)C1c1ccc(OC)cc1 (stereo not drawn) [Example 29, trans,trans-2-(4-Methoxyphenyl)-4-(1,4-benzodioxan-6-yl)-1-(N-methyl-N-propylaminocarbonylmethyl)-pyrrolidine-3-carboxylic acid]",85.3
3,"CCN(CC)C(=O)CN1CC(c2ccc3c(c2)OCO3)C(C(=O)O)C1c1ccc(OC)cc1 (stereo not drawn) [Example 44, trans,trans-2-(4-Methoxyphenyl)-4-(1,3-benzodioxol-5-yl)-1-(N,N-diethylaminocarbonylmethyl)-pyrrolidine-3-carboxylic acid]",91.3
4,"CCCN(C)C(=O)CN1CC(c2ccc(OC)c(OC)c2)C(C(=O)O)C1c1ccc(OC)cc1 (stereo not drawn) [Example 54, trans,trans-2-(4-Methoxyphenyl)-4-(3,4-dimethoxyphenyl)-1-(N-methyl-N-propyl)aminocarbonylmethyl)-pyrrolidine-3-carboxylic acid]",64.6
5,"CCCCS(=O)(=O)N(CCC)CCN1CC(c2ccc3c(c2)OCO3)C(C(=O)O)C1c1ccc(OC)cc1 (stereo not drawn) [Example 131, trans,trans-1-(2-(N-Propyl-N-(n-butylsulfonyl)amino)ethyl)-2-(4-methoxyphenyl)-4-(1,3-benzodioxol-5-yl)pyrrolidine-3-carboxylic acid]",89.5
6,"CCCCC(=O)CN1CC(c2ccc3c(c2)OCO3)C(C(=O)O)C1c1ccc(OC)cc1 (stereo not drawn) [Example 72C, trans,trans-2-(4-Methoxyphenyl)-4-(1,3-benzodioxol-5-yl)-1-(valerylmethyl)-pyrrolidine-3-carboxylic acid]",80.7
7,"CCCN(CCN1CC(c2ccc3c(c2)OCO3)C(C(=O)O)C1c1ccc(OC)cc1)S(=O)(=O)c1ccc(C)cc1 (stereo not drawn) [Example 129, trans,trans-1-(2-(N-Propyl-N-(4-methylbenzenesulfonyl)amino)ethyl)-2-(4-methoxyphenyl)-4-(1,3-benzodioxol-5-yl)pyrrolidine-3-carboxylic acid]",100.1
8,"CCCCN(CCCC)C(=O)CN1CC(c2ccc3c(c2)OCO3)C(C(=O)O)C1c1ccc(OC)c(F)c1 (stereo not drawn) [Example 313, trans—trans-2-(4-Methoxy-3-fluorophenyl)-4-(1,3-benzodioxol-5-yl)-1-[N,N-di(n-butyl)aminocarbonylmethyl]-pyrrolidine-3-carboxylic acid]",96.3
9,"CCCCNC(=O)N1CC(c2ccc3c(c2)OCO3)C(C(=O)O)C1c1ccc(OC)cc1 (stereo not drawn) [Example 9, trans,trans-2-(4-Methoxyphenyl)-4-(1,3-benzodioxole-5-yl)-1-(butylaminocarbonyl)-pyrrolidine-3-carboxylic acid]",69.2
10,"COc1ccc(C2C(C(=O)O)C(c3ccc4c(c3)OCO4)CN2CC(N)=O)cc1 (stereo not drawn) [Example 2, trans,trans-2-(4-Methoxyphenyl)-4-(1,3-benzodioxol-5-yl)-1-(aminocarbonylmethyl)-pyrrolidine-3-carboxylic acid]",58.4
11,"COc1ccc(C2C(C(=O)O)C(c3ccc4c(c3)OCO4)CN2CC(=O)N(C)Cc2ccc(OC)c(OC)c2)cc1 (stereo not drawn) [Example 73C, trans,trans-2-(4-Methoxyphenyl)-4-(1,3-benzodioxol-5-yl)-1-(N-(3,4-dimethoxybenzyl)-N-methylaminocarbonylmethyl)pyrrolidine-3-carboxylic acid]",96.3
12,"CCCN(C)C(=O)CN1CC(c2cccc(OC)c2)C(C(=O)O)C1c1ccc(OC)cc1 (stereo not drawn) [Example 55, trans,trans-2-(4-Methoxyphenyl)-4-(3-methoxyphenyl)-1-(N-methyl-N-propyl)aminocarbonylmethyl)-pyrrolidine-3-carboxylic acid]",50.5
13,"CCCCN(CCCC)C(=O)CN1CC(c2ccc3c(c2)OCC3)C(C(=O)O)C1c1ccc(OC)cc1 (stereo not drawn) [Example 141, trans,trans-1-(N,N-Di(n-butyl)aminocarbonylmethyl)-2-(4-methoxyphenyl)-4-(6-benzo-2,3-dihydrofuranyl)pyrrolidine-3-carboxylic acid]",92.8
14,"CCCN(CCN1C[C@H](c2ccc3c(c2)OCO3)[C@@H](C(=O)O)[C@@H]1c1ccc(OC)cc1)S(=O)(=O)N(C)C (relative stereo) [Example 315, trans,trans-2-(4-Methoxyphenyl)-4-(1,3-benzodioxol-5-yl)-1-(2-(N-propyl-N-dimethylsulfamoylamino)ethyl)-pyrrolidine-3-carboxylic acid]",82.7
15,"CCCCN(CCCC)C(=O)CN1CC(c2ccc3c(c2)OCO3)C(C(=O)O)C1c1ccoc1 (stereo not drawn) [Example 156, trans,trans-1-(N. N-Di(n-butyl)aminocarbonylmethyl)-2-(3-furyl)-4-(1,3-benzodioxol-5-yl)pyrrolidine-3-carboxylic acid]",92.6
16,"CCCN(C)C(=O)CN1CC(c2ccc3cc[nH]c3c2)C(C(=O)O)C1c1ccc(OC)cc1 (stereo not drawn) [Example 143, trans,trans-1-(N-Methyl-N-propylaminocarbonylmethyl)-2-(4-methoxyphenyl)-4-(6-indolyl)pyrrolidine-3-carboxylic acid]",20.6
17,"CCCCN(CCCC)C(=O)CN1CC(c2cccc(F)c2)C(C(=O)O)C1c1ccc(OC)cc1 (stereo not drawn) [Example 164, trans,trans-1-(N,N-Di(n-butyl)aminocarbonylmethyl)-2-(4-methoxyphenyl)-4-(3-fluorophenyl)pyrrolidine-3-carboxylic acid]",98.6
18,"CCCN(C)C(=O)CN1CC(c2ccccc2)C(C(=O)O)C1c1ccc(OC)cc1 (stereo not drawn) [Example 145, trans,trans-1-(N-Methyl-N-propylaminocarbonylmethyl)-2-(4-methoxyphenyl)-4-(phenyl)pyrrolidine-3-carboxylic acid]",32.4
19,"CCCN(CCN1CC(c2ccc3c(c2)OCO3)C(C(=O)O)C1c1ccc(OC)cc1)S(=O)(=O)CCOCC (stereo not drawn) [Example 126, trans,trans-1-(2-(N-Propyl-N-(2-ethoxyethylsulfonyl)amino)ethyl)-2-(4-methoxyphenyl)-4-(1,3-benzodioxol-5-yl)pyrrolidine-3-carboxylic acid]",91.7
20,"CCc1ccccc1C(NC(=O)CN1CC(c2ccc3c(c2)OCO3)C(C(=O)O)C1c1ccc(OCCOC(C)C)cc1)c1ccccc1C (stereo not drawn) [Example 559, trans,trans-2-[4-(2-Isopropopoxyethoxy)phenyl]-4-(1,3-benzodioxol-5-yl)-1-(N-((1-(o-tolyl)-1-(o-ethylphenyl)-methyl)amino)carbonylmethyl)-pyrrolidine-3-carboxylic acid]",5.8
21,"CCCCOCCN1CC(c2ccc3c(c2)OCO3)C(C(=O)O)C1c1ccc(OC)cc1 (stereo not drawn) [Example 23, trans,trans-2-(4-Methoxyphenyl)-4-(1,3-benzodioxol-5-yl)-1-(2-butoxyethyl)-pyrrolidine-3-carboxylic acid]",85.9
22,"CCCN(C)C(=O)CN1CC(c2ccc(F)c(F)c2)C(C(=O)O)C1c1ccc(OC)cc1 (stereo not drawn) [Example 144, trans,trans-1-(N-Methyl-N-propylaminocarbonylmethyl)-2-(4-methoxyphenyl)-4-(3,4-difluorophenyl)pyrrolidine-3-carboxylic acid]",78.2
23,"CCCCCC1C(C(=O)O)C(c2ccc3c(c2)OCO3)CN1CCN(CCC)S(=O)(=O)CCC (stereo not drawn) [Example 93C, trans,trans-2-(Pentyl)-4-(1,3-benzodioxol-5-yl)-1-[2-(N-propyl-N-propylsulfonylamino)ethyl]pyrrolidine-3-carboxylic acid]",59.2
24,"CCCCCN(CCCCC)C(=O)CN1CC(c2ccc3c(c2)OCO3)C(C(=O)O)C1c1ccc(OC)cc1 (stereo not drawn) [Example 35, trans,trans-2-(4-Methoxyphenyl)-4-(1,3-benzodioxol-5-yl)-1-(N,N-dipentylaminocarbonylmethyl)-pyrrolidine-3-carboxylic acid]",91.8
25,"CCCCN(CCCC)C(=O)CN1CC(c2ccc3c(c2)CCO3)C(C(=O)O)C1c1ccoc1 (stereo not drawn) [Example 163, trans,trans-1-(N,N-Di(n-butyl)aminocarbonylmethyl)-2-(3-furyl)-4-(5-benzo-2,3-dihydrofuranyl)pyrrolidine-3-carboxylic acid]",90.6

# From patent US7208517B1, “Endothelin antagonists” (Abbott Labortories, priority 1994, dated 2007)
